# Reference: patent US20160129044A1, “USE OF MESOTHELIAL CELLS IN TISSUE BIOENGINEERING AND ARTIFICIAL TISSUES” (FUNDACION PÚBLICA ANDALUZA PROGRESO Y SALUD, priority 2013, published 2016)
# System: adipose tissue mesothelial cells (ATMCs)
# Assay: Epithelial-to-mesenchymal transition (EMT) of cultured adipose tissue mesothelial cells: morphology, α-SMA/F-actin immunofluorescence, Western blot
# Assay type: cell-based, mouse
# Conditions: hydrocortisone 1 μg/ml; ATMCs cultured 3 days; basal media or 20 ng/ml EGF
# Method: A total number of 3.5×10^5 ATMCs was seeded in each well of a 6 wells culture dishes (140685, Nunclon™ Δ Surface) into 1.5 ml of a culture media that we termed MRPM (Mesothelial Retaining Phenotype Media). […] Dev Dyn 236: 2973-2979) which are components of the fetal bovine serum (FBS). […] Concentration in viable ATMCs was assessed with a Neubaeur haemocytometer by using the trypan blue exclusion test and was adjusted to a final concentration of 1.6×10^6 cells/ml. […] The mesothelial phenotype of ATMCs cultured for 48 hours in MRPM into hydrophilic p-Dish as well as mesothelialized HALC cultures was analyzed with immunofluorescence. […] Fluorescence images were captured with an inverted fluorescence microscope Olympus IX71 as described above. Quantification of α-SMA immunofluorescence expression was performed with the use of the Meta Imaging Software MetaMorph Offline version 7.5.1.0 (MDS Analytical technologies, USA). For each immunofluorescence image, were calculated the average values of specific Hoechst 33342 and Alexa 488 nm fluorescence emitted by the cells. Specific fluorescence was obtained after eliminating the average values of background fluorescence emitted by 3 areas lacking cells. Hoechst 33342 and Alexa 488 nm fluorescence were further divided between each other to obtain a relative index of marker expression (arbitrary units). […]
compound,measurement,value
"C[C@]12CCC(=O)C=C1CC[C@@H]1[C@@H]2[C@@H](O)C[C@@]2(C)[C@H]1CC[C@]2(O)C(=O)CO [Hydrocortisone, hydrocortisone]","Effect on Serum- and EGF-induced EMT of ATMCs (α-SMA expression, immunofluorescence and Western blot)",inhibits Serum- and EGF-induced EMT
